The values that follow come from ChEMBL document CHEMBL3046828, “Disappearance of pyrimethanil residues on tomato plants” (J Agric Food Chem, 2002).

The test system of data set [1] is Fruit. Put plainly: Drug degradation in Solanum lycopersicum (tomato) plant fruits at 300 g/L treated under green house condition measured after 22 days relative to initial level. The data set is classed as ADME. The note with it: 528 h.
The subject of data set [2] is Fruit. Put plainly: Drug recovery in Solanum lycopersicum (tomato) plant fruits at 0.14 ug/g of spiking level. The data set is classed as ADME.
The nature of data set [3]: Half life in Solanum lycopersicum (tomato) plant leaves at 300 g/L treated under green house condition. The data set is classed as ADME, Leaf.
Data set [4] has as its system Fruit. The data set can be described thus: Drug degradation in Solanum lycopersicum (tomato) plant fruits at 300 g/L treated under green house condition measured after 10 days relative to initial level. The data set is classed as ADME. Particulars: 240 h.
Data set [5] deals with Fruit. Put plainly: Drug degradation in Solanum lycopersicum (tomato) plant fruits at 300 g/L treated under green house condition measured after 8 days relative to initial level. Format: ADME. Particulars: 192 h.
In data set [6] the test system is Leaf. Put plainly: Residue remaining in Solanum lycopersicum (tomato) plant leaves at 300 g/L treated under green house condition measured after 7 days relative to initial level. Particulars: 168 h.
The test system of data set [7] is Leaf. The data set can be described thus: Drug degradation in Solanum lycopersicum (tomato) plant leaves at 300 g/L treated under green house condition measured after 3 days relative to initial level. The data set is classed as ADME. Particulars: 72 h.
Data set [8] concerns Fruit. The data set can be described thus: Drug degradation in Solanum lycopersicum (tomato) plant fruits at 300 g/L treated under green house condition measured after 15 days relative to initial level. The data set is classed as ADME. The note with it: 360 h.
In data set [9] the test system is Leaf. Put plainly: Drug degradation in Solanum lycopersicum (tomato) plant leaves at 300 g/L treated under green house condition measured after 10 days relative to initial level. The data set is classed as ADME. The note with it: 240 h.
Data set [10] relates to Leaf. Put plainly: Drug recovery in Solanum lycopersicum (tomato) plant leaves at 1.83 ug/cm'2 of spiking level. Format: ADME.
The test system of data set [11] is Leaf. Put plainly: Drug degradation in Solanum lycopersicum (tomato) plant leaves at 300 g/L treated under green house condition measured after 4 days relative to initial level. Format: ADME. The note with it: 96 h.
Data set [12] has as its system Leaf. The data set can be described thus: Drug degradation in Solanum lycopersicum (tomato) plant leaves at 300 g/L treated under green house condition measured after 1 day relative to initial level. Format: ADME. Particulars: 24 h.
Data set [13] is described as follows: Half life in Solanum lycopersicum (tomato) plant fruits at 300 g/L treated under green house condition. The data set is classed as ADME, Fruit.
Data set [14] deals with Leaf. Put plainly: Drug degradation in Solanum lycopersicum (tomato) plant leaves at 300 g/L treated under green house condition measured after 8 days relative to initial level. Format: ADME. Particulars: 192 h.
For data set [15], the system named is Leaf. The data set can be described thus: Drug degradation in Solanum lycopersicum (tomato) plant leaves at 300 g/L treated under green house condition measured after 5 days relative to initial level. Format: ADME. The note with it: 120 h.
Data set [16] has as its system Fruit. The data set can be described thus: Residue remaining in Solanum lycopersicum (tomato) plant fruits at 300 g/L treated under green house condition measured after 3 days relative to initial level. The note with it: 72 h.
In data set [17] the test system is Leaf. Put plainly: Residue remaining in Solanum lycopersicum (tomato) plant leaves at 300 g/L treated under green house condition measured after 11 days relative to initial level. The note with it: 264 h.
The subject of data set [18] is Leaf. The data set can be described thus: Drug degradation in Solanum lycopersicum (tomato) plant leaves at 300 g/L treated under green house condition measured after 15 days relative to initial level. Particulars: 360 h. The data set is classed as ADME.
For data set [19], the system named is Leaf. Put plainly: Drug degradation in Solanum lycopersicum (tomato) plant leaves at 300 g/L treated under green house condition measured after 6 days relative to initial level. The data set is classed as ADME. The note with it: 144 h.
In data set [20] the test system is Leaf. Put plainly: Drug residue remaining in Solanum lycopersicum (tomato) plant leaves at 300 g/L treated under green house condition measured after 22 days relative to initial level. Particulars: 528 h.
Data set [21] relates to Fruit. The data set can be described thus: Drug degradation in Solanum lycopersicum (tomato) plant fruits at 300 g/L treated under green house condition measured after 1 day relative to initial level. The note with it: 24 h. Format: ADME.

With `Cc1cc(C)nc(Nc2ccccc2)n1` [PYRIMETHANIL], the Residue remaining in the data set with Fruit [1] is given as 0%; in the data set on Fruit [5], 16%; in the data set with Leaf [6] it was 11%; in the data set on Leaf [7], 41%; in the data set with Fruit [8], 5%; with Leaf [11], 22%. The Residue remaining with Fruit [16] came to 79%; with Leaf [17], 0%; in the data set on Leaf [19] it was 11%; in the data set on Leaf [20] it was 0%. Also, the Drug recovery in the data set with Fruit [2] is reported as 99%; with Leaf [10], 91%. Also, the figures for the half-life in [3] and in data set [13] were 96 h and 137 h, respectively. For the same molecule, the Drug remaining was found to be 15% in the data set on Fruit [4], 100% with Leaf [12], 25% with Leaf [15] and 100% in the data set on Fruit [21]. The Drug degradation with Leaf [9] was 0.02%; in the data set on Leaf [14], 0%; in the data set on Leaf [18], 0%.
